Test results published in ChEMBL document CHEMBL5614416, “Discovery of novel thiophene[3,2-d]pyrimidine-based tubulin inhibitors with enhanced antitumor efficacy for combined use with anti-pd-l1 immunotherapy in melanoma” (Eur J Med Chem, 2024).

Experiments:
[1] = Inhibition of pig brain tubulin polymerization by spectrophotometric method
MCF7 = assay: Inhibition of cell migration in human MCF7 cells assessed as migration rate at 2 nM incubated for 24 hrs by wound healing assay (reference value: 18.1 %); assay type: functional; design: scale not given: the % may be the effect or the level left
[2] = Toxicity in C57 mouse xenografted with mouse B16-F10 cells assessed as morphological abnormality in kidney at 3.5 mg/kg, ip qd for 12 days in presence of NP-19 by H and E staining based analysis; assay type: organism-based; conditions: in vivo, 288 h, time 12 day
[3] = Toxicity in C57 mouse xenografted with mouse B16-F10 cells assessed as eosinophil level at 3.5 mg/kg, ip qd for 12 days in presence of NP-19 by biochemical analysis (reference value: 0.700 to 1.000 %); assay type: organism-based; conditions: in vivo, 288 h, time 12 day
[4] = Toxicity in C57 mouse xenografted with mouse B16-F10 cells assessed as neutrophil count at 3.5 mg/kg, ip qd for 12 days in presence of NP-19 by biochemical analysis (reference value: 2.130 to 5.46 10^9/L); assay type: organism-based; conditions: in vivo, 288 h, time 12 day
[5] = Toxicity in C57 mouse xenografted with mouse B16-F10 cells assessed as MCV level at 7 mg/kg, ip qd for 12 days by biochemical analysis (reference value: 15.800 to 48.900 fL); assay type: organism-based; conditions: in vivo, 288 h, time 12 day

In the case of `Cc1nc(N(C)c2ccc3c(ccn3C)c2)c2sccc2n1`, the IC50 [1] is reported as 2540 nM, the Activity (MCF7) is reported as 8.84% and the Activity [2] is reported as “Non-Toxic”. The Activity [3] was 0.3%, the Activity [4] was 1.38 10^9/L and the Activity [5] was 15.8 fL.
